# How the values were obtained:
# Assay type in all cases: biochemical
# Conditions in all cases: Table 7
# [1] = system: Rabbit Skeletal myofibrils (rabbit psoas muscle); assay: Myofibril ATPase assay (PK/LDH NADH-coupled), skeletal myofibrils
# Method in brief: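 Rabbit psoas myofibrils in pCa (PIPES/CaCl2/EGTA, pH 7.0) buffer; ADP coupled via PK/LDH to NADH loss, read at 340 nm every 1.5–2 min for 75 min. Slopes normalized to vehicle (100%) and fit to 4-parameter logistic for EC25, plus EC50 for inhibitors.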
# Porcine Atria myofibrils = assay: Myofibril ATPase assay (PK/LDH NADH-coupled), atria myofibrils
# Method in brief: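 Porcine atrial myofibril ATPase followed via PK/LDH-coupled NADH depletion, absorbance at 340 nm read every 1.5-2 min over 75 min. Slopes (mAU/min) normalized to vehicle as 100% and fit to a 4-parameter logistic; EC25% derived, plus EC50% for inhibitors.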
# [2] = target: T1, Porcine Ventricle myofibrils (left ventricle of Yucatan minipigs) (Sus scrofa, UniProt P79293); assay: Myofibril ATPase assay (PK/LDH NADH-coupled), ventricle myofibrils
# T1 construct: Myofibrils from porcine cardiac muscle was isolated from the left ventricle of Yucatan minipigs; tissue Exemplar Genetics; host or cells: left ventricle of Yucatan minipigs
# T1 sequence (P79293 whole entry): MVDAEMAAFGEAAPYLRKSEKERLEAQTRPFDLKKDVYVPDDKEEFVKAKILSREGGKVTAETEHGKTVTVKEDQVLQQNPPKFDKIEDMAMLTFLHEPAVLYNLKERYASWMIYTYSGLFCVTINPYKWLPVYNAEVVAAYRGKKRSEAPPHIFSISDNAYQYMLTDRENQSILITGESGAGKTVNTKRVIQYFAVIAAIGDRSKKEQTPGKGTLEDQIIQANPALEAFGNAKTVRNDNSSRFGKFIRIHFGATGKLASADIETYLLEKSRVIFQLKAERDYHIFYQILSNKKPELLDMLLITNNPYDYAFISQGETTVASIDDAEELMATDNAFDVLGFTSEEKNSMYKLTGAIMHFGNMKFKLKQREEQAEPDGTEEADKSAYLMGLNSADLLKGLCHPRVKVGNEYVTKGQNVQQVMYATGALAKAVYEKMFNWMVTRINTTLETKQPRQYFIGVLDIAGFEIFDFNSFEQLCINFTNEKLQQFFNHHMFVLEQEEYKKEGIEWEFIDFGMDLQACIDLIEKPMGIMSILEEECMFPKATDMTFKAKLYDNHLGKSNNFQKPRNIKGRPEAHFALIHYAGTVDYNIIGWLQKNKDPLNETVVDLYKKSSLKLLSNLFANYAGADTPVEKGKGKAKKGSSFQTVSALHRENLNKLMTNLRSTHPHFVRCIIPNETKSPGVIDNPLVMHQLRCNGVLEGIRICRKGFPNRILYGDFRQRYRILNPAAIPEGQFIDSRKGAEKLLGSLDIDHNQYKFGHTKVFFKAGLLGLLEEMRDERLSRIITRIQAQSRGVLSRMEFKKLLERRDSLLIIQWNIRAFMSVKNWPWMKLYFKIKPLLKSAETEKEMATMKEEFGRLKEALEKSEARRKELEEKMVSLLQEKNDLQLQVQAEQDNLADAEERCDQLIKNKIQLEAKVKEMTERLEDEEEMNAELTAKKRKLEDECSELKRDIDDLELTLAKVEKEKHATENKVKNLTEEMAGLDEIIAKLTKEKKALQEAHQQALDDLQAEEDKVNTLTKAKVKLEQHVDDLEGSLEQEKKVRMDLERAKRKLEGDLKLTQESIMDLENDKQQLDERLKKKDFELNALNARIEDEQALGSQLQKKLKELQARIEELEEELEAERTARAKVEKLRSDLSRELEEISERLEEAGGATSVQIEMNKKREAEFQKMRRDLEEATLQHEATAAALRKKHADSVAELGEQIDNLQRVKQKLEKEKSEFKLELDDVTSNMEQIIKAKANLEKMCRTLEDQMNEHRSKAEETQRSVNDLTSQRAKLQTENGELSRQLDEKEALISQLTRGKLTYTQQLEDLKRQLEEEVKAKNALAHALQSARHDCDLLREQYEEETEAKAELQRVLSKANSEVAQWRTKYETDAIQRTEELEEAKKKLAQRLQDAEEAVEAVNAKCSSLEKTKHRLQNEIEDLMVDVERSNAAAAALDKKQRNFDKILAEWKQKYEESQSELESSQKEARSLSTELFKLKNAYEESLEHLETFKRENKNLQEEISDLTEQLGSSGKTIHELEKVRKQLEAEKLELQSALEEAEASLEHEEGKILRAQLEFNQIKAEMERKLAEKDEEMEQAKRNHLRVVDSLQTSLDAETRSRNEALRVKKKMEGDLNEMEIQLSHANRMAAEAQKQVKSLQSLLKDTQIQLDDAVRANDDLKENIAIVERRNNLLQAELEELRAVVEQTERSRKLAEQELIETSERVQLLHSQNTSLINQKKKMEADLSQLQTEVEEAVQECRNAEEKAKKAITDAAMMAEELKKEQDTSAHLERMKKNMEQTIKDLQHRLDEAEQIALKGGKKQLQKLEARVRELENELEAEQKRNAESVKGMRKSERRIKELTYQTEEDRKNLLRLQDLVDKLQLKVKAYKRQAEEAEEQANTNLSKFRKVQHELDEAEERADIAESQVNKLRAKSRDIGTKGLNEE
# Method in brief: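 Yucatan minipig left-ventricle myofibrils; ATPase measured by PK/LDH-coupled NADH loss at 340 nm, read every 1.5-2 min for 75 min. Slopes normalized to vehicle (100%) and fit to 4-parameter logistic model; EC25 and, for inhibitors, EC50 calculated.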
Structure (SMILES),Rabbit Psoas IC25 [1],Porcine Atria IC25 (Porcine Atria myofibrils),Porcine Ventricle IC25 [2]
O=C(CN1Cc2c(ccnc2C(F)(F)F)NC1=O)N[C@@H]1COc2cc(F)cc(F)c21 [Compound N18],0.03098 µM,0.12 µM,1.324 µM
O=C(CN1Cc2c(ccnc2C(F)(F)F)NC1=O)N[C@H]1COc2cc(F)cc(F)c21 [Compound N19],2.245 µM,2.00 µM,11.46 µM
C[C@@H](NC(=O)CN1Cc2cnccc2NC1=O)c1ccc(C#N)cc1F [Compound N20],0.1315 µM,100.00 µM,100 µM
C[C@H](NC(=O)CN1Cc2cnccc2NC1=O)c1ccc(C#N)cc1F [Compound N21],6.632 µM,4.36 µM,13.45 µM
C[C@@H](NC(=O)CN1Cc2c(ccnc2C#N)NC1=O)c1ccc(C#N)cc1F [Compound N22],0.2583 µM,100.00 µM,100 µM
C[C@H](NC(=O)CN1Cc2c(ccnc2C#N)NC1=O)c1ccc(C#N)cc1F [Compound N23],0.0165 µM,0.28 µM,0.1625 µM
"C[C@H](NC(=O)CN1Cc2c(C#N)cncc2NC1=O)c1ccc(F)cc1F [Compound N24, 2-{5-Cyano-2-oxo-1H,4H-pyrido[3,4-d]pyrimidin-3-yl}-N-[(1S)-1-(2,4-difluorophenyl)ethyl]acetamide]",0.2119 µM,2.97 µM,37.65 µM
C[C@@H](NC(=O)CN1C(=O)Nc2cccnc2C12CC2)c1ncc(C#N)cc1F [Compound N25],1.324 µM,13.11 µM,100 µM
O=C(CN1C(=O)Nc2cccnc2C12CC2)N[C@H](CO)c1ccc(F)cc1F [Compound N27],100 µM,100.00 µM,100 µM
O=C(CN1C(=O)Nc2cccnc2C12CC2)N[C@@H](CO)c1ccc(F)cc1F [Compound N28],0.2814 µM,0.41 µM,6.602 µM
C[C@@H](NC(=O)CN1C(=O)Nc2cccnc2C12COC2)c1ncc(F)cc1F [Compound N29],100 µM,100.00 µM,100 µM

# Now from value to compound:
Rabbit Psoas IC25 [1],Porcine Atria IC25 (Porcine Atria myofibrils),Porcine Ventricle IC25 [2],Structure (SMILES)
5.318 µM,35.72 µM,100 µM,C[C@H](NC(=O)CN1C(=O)Nc2cccnc2C12COC2)c1ncc(F)cc1F [Compound N30]
0.0533 µM,0.38 µM,1.237 µM,N#Cc1ccc([C@@H](CO)NC(=O)CN2Cc3c(ccnc3C#N)NC2=O)c(F)c1 [Compound N31]
2.872 µM,100.00 µM,100 µM,N#Cc1ccc([C@H](CO)NC(=O)CN2Cc3c(ccnc3C#N)NC2=O)c(F)c1 [Compound N32]
1.366 µM,8.44 µM,100 µM,O=C(CN1C(=O)Nc2cccnc2C12CC2)N[C@H]1COc2cc(F)cc(F)c21 [Compound N34]
0.9847 µM,6.39 µM,100 µM,C[C@H](NC(=O)CN1C(=O)Nc2cccnc2C12COC2)c1ccc(F)cc1F [Compound N35]
1.604 µM,8.01 µM,25.16 µM,N#Cc1ccc([C@@H](CO)NC(=O)CN2C(=O)Nc3cccnc3C23CC3)c(F)c1 [Compound N36]
0.0599 µM,0.20 µM,4.582 µM,N#Cc1ccc([C@H](CO)NC(=O)CN2C(=O)Nc3cccnc3C23CC3)c(F)c1 [Compound N37]
